According to ChEMBL document CHEMBL5236590, “Discovery of Novel N-(5-(Pyridin-3-yl)-1H-indazol-3-yl)benzamide Derivatives as Potent Cyclin-Dependent Kinase 7 Inhibitors for the Treatment of Autosomal Dominant Polycystic Kidney Disease” (J Med Chem, 2022):
Activity calls are given as the source filed them. The rule behind the calls is not given here.

Key:
[1] = target: T1, Cyclin-dependent kinase 7 (Homo sapiens, UniProt P50613); assay: Irreversible inhibition of CDK7 (unknown origin) assessed as activity measured after 3 hrs by jump dilution method
T1 sequence (P50613 whole entry): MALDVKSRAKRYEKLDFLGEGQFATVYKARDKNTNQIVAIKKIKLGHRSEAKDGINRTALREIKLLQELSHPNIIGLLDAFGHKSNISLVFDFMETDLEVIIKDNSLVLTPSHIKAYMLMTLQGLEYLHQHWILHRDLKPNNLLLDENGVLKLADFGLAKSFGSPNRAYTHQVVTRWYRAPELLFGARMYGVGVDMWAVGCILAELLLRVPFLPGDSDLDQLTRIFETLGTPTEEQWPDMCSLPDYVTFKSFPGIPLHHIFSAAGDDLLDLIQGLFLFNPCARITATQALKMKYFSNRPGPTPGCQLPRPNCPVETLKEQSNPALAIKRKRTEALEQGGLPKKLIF

[2] = Plasma protein binding in mouse measured after 4 hrs by LC-MS/MS analysis; type: ADME, cell-free; conditions: read-out: PPB
[3] = Observed volume of distribution at steady state in ICR mouse at 5 mg/kg, iv single dose measured upto 24 hrs; type: ADME, organism-based; conditions: in vivo, read-out: Vdss
Mus musculus [4] = assay: Reduction in AMPD3 protein expression in kidney-specific Pkd1 knockout ADPKD mouse model assessed as protein expression in kidney at 5 mg/kg by Western blot analysis; type: functional, organism-based
[5] = Observed clearance in ICR mouse at 5 mg/kg, iv single dose measured upto 24 hrs; type: ADME, organism-based; conditions: in vivo
[6] = test system: Epidermal growth factor receptor (Homo sapiens), P00533 [UNDEFINED MUTATION]; assay: Inhibition of human partial length EGFR (R669/V1011) G719C mutant expressed in bacterial system at 1 uM by KINOMEscan analysis relative to control
[7] = target: Eukaryotic elongation factor 2 kinase (Homo sapiens) (UniProt O00418); assay: Inhibition of human recombinant eEF-2K at 1 uM by radiometric assay relative to control
[8] = target: Serine/threonine-protein kinase PAK 2 (Homo sapiens) (UniProt Q13177); assay: Inhibition of human partial length wild type PAK2 (P151/R525) expressed in bacterial system at 1 uM by KINOMEscan analysis relative to control
Chain of Serine/threonine-protein kinase PAK 2 (Homo sapiens) (Q13177 whole entry): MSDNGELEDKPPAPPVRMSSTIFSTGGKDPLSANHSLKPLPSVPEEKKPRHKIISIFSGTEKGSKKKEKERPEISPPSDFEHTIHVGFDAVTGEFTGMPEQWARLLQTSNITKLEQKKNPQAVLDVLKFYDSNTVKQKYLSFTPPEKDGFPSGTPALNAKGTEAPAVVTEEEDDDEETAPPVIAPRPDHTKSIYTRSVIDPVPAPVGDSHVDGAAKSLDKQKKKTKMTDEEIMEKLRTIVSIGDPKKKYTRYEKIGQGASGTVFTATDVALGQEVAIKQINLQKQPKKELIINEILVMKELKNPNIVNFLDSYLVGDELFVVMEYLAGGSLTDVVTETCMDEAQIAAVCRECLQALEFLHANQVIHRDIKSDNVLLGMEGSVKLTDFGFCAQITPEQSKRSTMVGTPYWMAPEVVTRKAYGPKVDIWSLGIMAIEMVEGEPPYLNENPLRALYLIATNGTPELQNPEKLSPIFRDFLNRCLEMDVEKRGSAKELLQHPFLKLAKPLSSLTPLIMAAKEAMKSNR

[9] = target: Serine/threonine-protein kinase Nek2 (Homo sapiens) (UniProt P51955); assay: Inhibition of human partial length wild type NEK2 expressed in bacterial system at 1 uM by KINOMEscan analysis relative to control
Chain of Serine/threonine-protein kinase Nek2 (Homo sapiens) (P51955 whole entry): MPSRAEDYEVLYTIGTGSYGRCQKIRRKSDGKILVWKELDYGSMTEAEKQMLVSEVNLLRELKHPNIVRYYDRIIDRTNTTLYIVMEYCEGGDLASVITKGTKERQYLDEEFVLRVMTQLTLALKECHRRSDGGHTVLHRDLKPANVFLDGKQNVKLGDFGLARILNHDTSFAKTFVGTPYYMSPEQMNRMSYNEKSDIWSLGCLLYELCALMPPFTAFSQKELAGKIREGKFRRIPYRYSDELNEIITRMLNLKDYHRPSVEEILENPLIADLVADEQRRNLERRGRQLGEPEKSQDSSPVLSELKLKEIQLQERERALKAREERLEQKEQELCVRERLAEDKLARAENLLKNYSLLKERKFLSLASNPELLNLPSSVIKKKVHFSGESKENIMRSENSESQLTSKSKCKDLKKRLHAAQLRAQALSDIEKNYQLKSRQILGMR

[10] = Observed AUC (infinitive) in ICR mouse at 5 mg/kg, iv single dose measured upto 24 hrs; type: ADME, organism-based; set-up: dose 5 mg/kg, time < 24 hrs, route iv; conditions: in vivo
[11] = target: Casein kinase I isoform gamma-1 (Homo sapiens) (UniProt Q9HCP0); assay: Inhibition of human partial length wild type CKlgamma1 (T15/S353) expressed in bacterial system at 1 uM by KINOMEscan analysis relative to control
Chain of Casein kinase I isoform gamma-1 (Homo sapiens) (Q9HCP0 whole entry, looked up, canonical isoform): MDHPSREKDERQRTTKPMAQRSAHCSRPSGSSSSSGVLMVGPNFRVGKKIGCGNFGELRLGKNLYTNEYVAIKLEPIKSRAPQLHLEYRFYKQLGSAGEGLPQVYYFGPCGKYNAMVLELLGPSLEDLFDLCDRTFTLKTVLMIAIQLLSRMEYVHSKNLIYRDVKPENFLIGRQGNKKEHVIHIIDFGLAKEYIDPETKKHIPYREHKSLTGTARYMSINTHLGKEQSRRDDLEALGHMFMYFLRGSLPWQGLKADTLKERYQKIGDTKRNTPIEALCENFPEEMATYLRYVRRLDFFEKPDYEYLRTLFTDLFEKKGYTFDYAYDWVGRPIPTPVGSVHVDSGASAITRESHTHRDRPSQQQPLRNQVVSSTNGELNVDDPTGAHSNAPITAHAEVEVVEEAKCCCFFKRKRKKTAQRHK

[12] = target: RAC-alpha serine/threonine-protein kinase (Homo sapiens) (UniProt P31749); assay: Inhibition of PKBalpha (unknown origin) at 1 uM relative to control
Chain of RAC-alpha serine/threonine-protein kinase (Homo sapiens) (P31749 whole entry): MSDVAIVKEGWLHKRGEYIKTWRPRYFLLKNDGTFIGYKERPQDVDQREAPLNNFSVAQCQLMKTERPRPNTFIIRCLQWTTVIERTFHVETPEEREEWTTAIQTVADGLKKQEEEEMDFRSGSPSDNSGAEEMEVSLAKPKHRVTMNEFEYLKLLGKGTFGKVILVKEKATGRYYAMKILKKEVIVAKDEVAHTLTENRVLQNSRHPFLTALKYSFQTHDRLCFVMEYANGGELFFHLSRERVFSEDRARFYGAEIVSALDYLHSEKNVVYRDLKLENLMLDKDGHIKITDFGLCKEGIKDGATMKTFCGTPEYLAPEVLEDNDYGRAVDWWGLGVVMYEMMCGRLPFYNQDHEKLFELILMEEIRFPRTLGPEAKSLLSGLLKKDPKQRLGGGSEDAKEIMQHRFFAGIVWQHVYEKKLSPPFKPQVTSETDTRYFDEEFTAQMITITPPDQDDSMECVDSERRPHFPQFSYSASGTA

[13] = target: RAF proto-oncogene serine/threonine-protein kinase (Homo sapiens) (UniProt P04049); assay: Inhibition of human partial length wild type c-RAF (I330/T640) expressed in bacterial system at 1 uM by KINOMEscan analysis relative to control
[14] = target: Vascular endothelial growth factor receptor 2 (Homo sapiens) (UniProt P35968); assay: Inhibition of human partial length wild type KDR (R787/P1253) expressed in mammalian system at 1 uM by KINOMEscan analysis relative to control
Chain of Vascular endothelial growth factor receptor 2 (Homo sapiens) (P35968 whole entry): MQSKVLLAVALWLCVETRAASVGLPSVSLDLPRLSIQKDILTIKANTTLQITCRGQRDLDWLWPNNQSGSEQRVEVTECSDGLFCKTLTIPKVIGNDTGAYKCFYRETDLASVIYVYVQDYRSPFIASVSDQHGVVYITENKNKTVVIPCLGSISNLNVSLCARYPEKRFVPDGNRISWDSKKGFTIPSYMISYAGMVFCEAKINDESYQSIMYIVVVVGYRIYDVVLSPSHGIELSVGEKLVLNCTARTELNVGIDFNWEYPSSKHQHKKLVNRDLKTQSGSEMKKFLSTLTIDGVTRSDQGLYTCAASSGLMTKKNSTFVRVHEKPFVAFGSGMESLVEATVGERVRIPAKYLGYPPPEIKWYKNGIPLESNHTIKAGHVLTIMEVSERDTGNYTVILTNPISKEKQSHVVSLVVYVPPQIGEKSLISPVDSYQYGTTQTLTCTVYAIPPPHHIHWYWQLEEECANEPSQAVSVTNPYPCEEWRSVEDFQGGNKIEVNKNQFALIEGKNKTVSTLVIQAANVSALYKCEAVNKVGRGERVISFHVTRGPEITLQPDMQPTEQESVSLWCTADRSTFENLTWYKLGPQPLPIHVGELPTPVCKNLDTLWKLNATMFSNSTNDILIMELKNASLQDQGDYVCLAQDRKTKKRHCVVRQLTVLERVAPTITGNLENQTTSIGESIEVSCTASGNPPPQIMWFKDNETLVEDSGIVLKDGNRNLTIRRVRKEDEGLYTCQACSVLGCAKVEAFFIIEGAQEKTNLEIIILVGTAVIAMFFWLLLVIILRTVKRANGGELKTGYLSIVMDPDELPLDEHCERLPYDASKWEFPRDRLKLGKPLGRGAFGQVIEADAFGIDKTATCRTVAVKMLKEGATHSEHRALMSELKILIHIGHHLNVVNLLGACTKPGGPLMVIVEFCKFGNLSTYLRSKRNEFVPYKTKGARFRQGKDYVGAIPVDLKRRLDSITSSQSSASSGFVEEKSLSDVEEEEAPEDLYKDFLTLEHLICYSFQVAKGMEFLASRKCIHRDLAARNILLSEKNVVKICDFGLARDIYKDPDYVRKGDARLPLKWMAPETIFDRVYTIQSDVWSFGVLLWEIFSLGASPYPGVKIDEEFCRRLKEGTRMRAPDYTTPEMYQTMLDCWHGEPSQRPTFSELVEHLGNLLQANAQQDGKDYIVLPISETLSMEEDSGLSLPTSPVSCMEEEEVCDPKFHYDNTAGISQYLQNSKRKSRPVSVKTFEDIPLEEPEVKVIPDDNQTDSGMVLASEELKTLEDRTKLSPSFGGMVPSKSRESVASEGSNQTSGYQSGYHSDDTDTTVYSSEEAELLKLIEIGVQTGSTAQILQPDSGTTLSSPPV

[15] = target: Tyrosine-protein kinase JAK2 (Homo sapiens) (UniProt O60674); assay: Inhibition of human partial length wild type JAK2 (A829/G1132) expressed in mammalian system at 1 uM by KINOMEscan analysis relative to control
Chain of Tyrosine-protein kinase JAK2 (Homo sapiens) (O60674 whole entry): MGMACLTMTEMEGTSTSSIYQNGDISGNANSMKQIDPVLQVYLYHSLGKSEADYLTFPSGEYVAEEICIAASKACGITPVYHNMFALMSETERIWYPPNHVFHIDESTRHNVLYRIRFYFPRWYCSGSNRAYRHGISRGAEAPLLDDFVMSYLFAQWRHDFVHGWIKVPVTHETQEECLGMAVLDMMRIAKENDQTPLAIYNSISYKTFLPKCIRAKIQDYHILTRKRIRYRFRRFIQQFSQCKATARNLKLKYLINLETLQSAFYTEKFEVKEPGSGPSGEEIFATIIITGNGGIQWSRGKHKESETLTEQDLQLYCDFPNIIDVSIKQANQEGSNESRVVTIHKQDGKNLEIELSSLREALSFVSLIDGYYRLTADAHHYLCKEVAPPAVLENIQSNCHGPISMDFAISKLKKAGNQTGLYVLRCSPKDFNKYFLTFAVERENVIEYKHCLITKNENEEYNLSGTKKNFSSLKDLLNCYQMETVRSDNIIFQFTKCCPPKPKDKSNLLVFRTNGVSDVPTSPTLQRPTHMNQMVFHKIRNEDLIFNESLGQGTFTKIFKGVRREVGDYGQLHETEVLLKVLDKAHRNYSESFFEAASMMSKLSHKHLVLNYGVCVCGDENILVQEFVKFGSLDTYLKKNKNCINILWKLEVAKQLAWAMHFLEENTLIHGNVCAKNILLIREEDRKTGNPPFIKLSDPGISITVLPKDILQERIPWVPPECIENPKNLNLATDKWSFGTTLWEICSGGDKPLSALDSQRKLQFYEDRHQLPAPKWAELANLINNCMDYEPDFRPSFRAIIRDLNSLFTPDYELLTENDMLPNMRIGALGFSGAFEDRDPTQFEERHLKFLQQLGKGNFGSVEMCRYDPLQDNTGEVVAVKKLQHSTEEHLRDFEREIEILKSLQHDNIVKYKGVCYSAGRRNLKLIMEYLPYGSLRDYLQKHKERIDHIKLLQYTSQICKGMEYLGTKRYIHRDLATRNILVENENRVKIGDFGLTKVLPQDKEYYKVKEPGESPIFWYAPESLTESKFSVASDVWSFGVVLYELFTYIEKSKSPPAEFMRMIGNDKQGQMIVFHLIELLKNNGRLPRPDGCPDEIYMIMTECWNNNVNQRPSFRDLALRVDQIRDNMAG

Mus musculus [16] = organism: Mus musculus; assay: Suppression of cyst formation in C57BL/6 mouse embryonic kidney cyst model at 1 to 3 uM measured for 4 to 12 […]; type: functional, organism-based; conditions: dose 1-3 µM, time 4-12 hrs
[17] = target: Tyrosine-protein kinase Lyn (Homo sapiens) (UniProt P07948); assay: Inhibition of human partial length wild type Lyn (C219/Q511) expressed in bacterial system at 1 uM by KINOMEscan analysis relative to control
MDCK = assay: Inhibition of cyst formation in in-vitro MDCK cyst model assessed as decrease in cyst diameter at 1 to 3 uM measured for 4 to […]; type: functional, cell-based; conditions: Canis lupus familiaris, dose 1-3 µM, time lower 4.0 hrs
[18] = target: PI3K p110 beta/p85 alpha (Homo sapiens) (UniProt P27986+P42338); assay: Inhibition of P13 kinase p110beta/p85alpha (unknown origin) at 1 uM relative to control; type: protein-complex assay
[19] = Toxicity in wild type mouse assessed as body weight at 5 mg/kg; type: organism-based; conditions: in vivo
[20] = Observed AUC (infinitive) in ICR mouse at 5 mg/kg, sc single dose measured upto 24 hrs; type: ADME, organism-based; set-up: time < 24 hrs, dose 5 mg/kg, route sc; conditions: in vivo
[21] = Bioavailability in ICR mouse at 5 mg/kg, sc single dose measured upto 24 hrs; type: ADME, organism-based; conditions: in vivo
[22] = target: Serine/threonine-protein kinase pim-1 (Homo sapiens) (UniProt P11309); assay: Inhibition of human partial length wild type Pim-1 (M1/E291) expressed in bacterial system at 1 uM by KINOMEscan analysis relative to control
Chain of Serine/threonine-protein kinase pim-1 (Homo sapiens) (P11309 whole entry, looked up): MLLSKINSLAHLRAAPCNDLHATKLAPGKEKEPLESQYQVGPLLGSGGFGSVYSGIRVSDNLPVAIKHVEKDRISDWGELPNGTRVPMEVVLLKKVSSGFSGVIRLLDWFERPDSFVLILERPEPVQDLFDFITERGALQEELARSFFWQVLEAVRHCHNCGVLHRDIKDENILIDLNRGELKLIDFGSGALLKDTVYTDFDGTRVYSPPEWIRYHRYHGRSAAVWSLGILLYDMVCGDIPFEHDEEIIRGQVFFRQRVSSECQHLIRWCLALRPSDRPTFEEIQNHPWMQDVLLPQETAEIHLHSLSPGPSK

[23] = target: Ephrin type-B receptor 4 (Homo sapiens) (UniProt P54760); assay: Inhibition of human partial length wild type EphB4 (H585/G892) expressed in bacterial system at 1 uM by KINOMEscan analysis relative to control
[24] = target: Cyclin-dependent kinase 9 (Homo sapiens, UniProt P50750); assay: Inhibition of CDK9 (unknown origin)
[25] = Toxicity in wild type mouse assessed as kidney size at 5 mg/kg; type: organism-based; conditions: in vivo
Mus musculus [26] = assay: Reduction in cyst formation in kidney-specific Pkd1 knockout ADPKD mouse model assessed as renal cystic index at 5 mg/kg by HE staining analysis; type: functional, organism-based
[27] = Tmax in ICR mouse at 5 mg/kg, sc single dose measured upto 24 hrs; type: ADME, organism-based; conditions: in vivo
[28] = target: T1, Cyclin-dependent kinase 7; assay: Inhibition of CDK7 (unknown origin)
[29] = target: cAMP-dependent protein kinase catalytic subunit alpha (Homo sapiens) (UniProt P17612); assay: Inhibition of human recombinant PKA expressed in Escherichia coli at 1 uM by KINOMEscan analysis relative to control
Mus musculus [30] = assay: Reduction in cyst size in kidney-specific Pkd1 knockout ADPKD mouse model assessed as renal cystic index at 5 mg/kg by HE staining analysis; type: functional, organism-based
Mus musculus [31] = assay: Reduction in AMPD3 protein expression in kidney-specific Pkd1 knockout ADPKD mouse model assessed as protein expression in cyst-lining epithelial cell at 5 mg/kg by Western blot analysis; type: functional, organism-based
[32] = target: Mitogen-activated protein kinase kinase kinase 7 (Homo sapiens) (UniProt O43318); assay: Inhibition of human partial length TAK1 (M1/Q303) expressed in mammalian system at 1 uM by KINOMEscan analysis relative to control
[33] = target: Ribosomal protein S6 kinase alpha-4 (Homo sapiens) (UniProt O75676); assay: Inhibition of human partial length wild type MSK2 expressed in bacterial system at 1 uM by KINOMEscan analysis relative to control
[34] = Half life in ICR mouse at 5 mg/kg, sc single dose measured upto 24 hrs; type: ADME, organism-based; conditions: in vivo
[35] = target: Ribosomal protein S6 kinase beta-1 (Homo sapiens) (UniProt P23443); assay: Inhibition of human partial length wild type p70S6K (M1/S421) expressed in mammalian system at 1 uM by KINOMEscan analysis relative to control
[36] = Efflux ratio of apparent permeability in human Caco-2 cells after 120 mins by LC-MS/MS analysis; type: ADME, cell-based
[37] = target: T1, Cyclin-dependent kinase 7; assay: Inhibition of CDK7 (unknown origin) assessed as phosphorylation of ULight 4EBP1 peptide substrate measured after 2 hrs by FRET-based LANCE Ultra KinSelect assay

C=CC(=O)Nc1ccc(C(=O)Nc2n[nH]c3ccc(-c4cncc(NC[C@@H](O)c5ccccc5)c4)cc23)cc1
inhibition [1]: Active | fraction unbound at 4 h [2]: < 0.01 | Vd [3]: 1.28 L/kg | inhibition (Mus musculus [4]): Active | clearance [5]: 3 mL/min/kg | inhibition [6]: < 50% | inhibition [7]: < 50% | inhibition [8]: < 50% | inhibition [9]: < 50% | AUC(0-inf) [10]: 31700 ng·h/mL | inhibition [11]: < 50% | inhibition [12]: < 50% | inhibition [13]: < 50% | inhibition [14]: 63% | inhibition [15]: 62% | inhibition (Mus musculus [16]): Dose-Dependent Effect | inhibition [17]: < 50% | inhibition (MDCK): Dose-Dependent Effect | inhibition [18]: < 50% | Activity [19]: Non-Toxic | AUC(0-inf) [20]: 17400 ng·h/mL | bioavailability [21]: 64.2% | inhibition [22]: 57% | inhibition [23]: < 50% | IC50 [24]: 526 nM | Activity [25]: Non-Toxic | Activity (Mus musculus [26]): Active | Tmax [27]: 1 h | IC50 [28]: 4 nM | inhibition [29]: < 50% | Activity (Mus musculus [30]): Active | Activity (Mus musculus [31]): Active | inhibition [32]: 76% | inhibition [33]: < 50% | half-life [34]: 3 h | inhibition [35]: < 50% | efflux ratio at 2 h [36]: > 48 | IC50 [37]: 4 nM
